According to patent US12474342B2, “Methods for treating cancer and the use of biomarkers as a predictor of clinical sensitivity to therapies” (CELGENE CORPORATION, priority 2016, dated 2025):

Key:
GSPT1 [1] = target: T1, GSPT1 (Homo sapiens, UniProt P15170+Q96SW2); test: GSPT1 degradation in NB4 cell line; type: cell-based; set-up: endogenous in cells
IKZF1 = IKZF1 (Homo sapiens, UniProt Q13422+Q96SW2)
[2] = tested on: ATF3, DDIT3, cleaved Caspases, cleaved PARP; test: UPR and apoptosis pathway components in KG1 cells; type: cell-based, human; conditions: KG1, 200 nM, 8 or 12 hours
Procedure: Cells were treated with DMSO alone or 200 nM Compound D. After 2, 4, or 6 hours, the expression levels of various cellular components along UPR or apoptosis pathways were measured. […] Reduction of BIP indicates UPR.
(§1) Cells were treated with DMSO alone, 200 nM Compound D, or 200 nM Compound E. After 8 or 12 hours, the expression levels of various cellular components along UPR or apoptosis pathways were measured. […] Reduction of BIP indicates UPR.
(§2) To further investigate the timeline of cellular events upon Compound D treatment, KG1 cells were treated with DMSO alone or 200 nM Compound D. At 2, 4, 6, 8, 10, or 12 hours, the expression levels of various cellular components along ATF4 or apoptosis pathways were measured.

OCI-AML3 cells = test: Anti-proliferation CTG assay, OCI-AML3; type: cell-based, human; conditions: AML3 parental or control shRNA cells, 0.0001 μM to 1 μM, two days
Procedure: (§3) A plethora of AML cell lines were treated with serial dilutions of Compound D. IC50 value of the anti-proliferation effect of Compound D (as determined in 72-hour CTG assays) in each cell line is summarized in Table 1.
The effect of depletion of GSPT1 on the anti-proliferative effect of compound Compound D and Compound E was also determined in human acute myelogenous leukemia cell lines AML and KG1. Cells were infected with lentiviral vectors expressing control shRNA, shGSPT1-1 or shGSPT1-3 for 7 days and then treated with DMSO, Compound D or Compound E in a titration from 0.0001 μM to 1 μM. Two days after treatment, cell proliferation was measured by CellTiter-Glo cell viability. […] Both shGSPT1-1 and shGSPT1-3 reduced the expression of GSPT1, eRF1, and slightly of CRBN.

KG-1 cells = test: Anti-proliferation CTG assay, KG-1; type: cell-based, human; conditions: KG1 parental or control shRNA cells, 0.0001 μM to 1 μM, two days
Procedure: The effect of depletion of GSPT1 on the anti-proliferative effect of compound Compound D and Compound E was also determined in human acute myelogenous leukemia cell lines AML and KG1. […]

MOLM-13 cells = test: Anti-proliferation CTG assay, MOLM-13; type: cell-based, human; conditions: 48 hours
Procedure: as §3
(§4) The effect of overexpression of GSPT1 on the anti-proliferative effect of Compound D and Compound E was determined in human histiocytic lymphoma cell line U937 and human leukemia cell line MOLM13. Treatment compounds (e.g., Compound D or Compound E) were titrated from 0.001 μM to 10 μM. Cell proliferation was measured by CellTiter-Glo cell viability assay at 48 hours after treatment. […] However, when exogenous GSPT1 was overproduced via the EF1α promoter, as shown in FIGS. 5A-5D, the anti-proliferative effect of Compound D and Compound E reduced.

GSPT1 [3] = target: T1, GSPT1; test: GSPT1 protein reduction, western analysis, KG-1; type: cell-based; set-up: reduction in GSPT1 protein level was evaluated in human normal PBMCs; endogenous in cells; host or cells: primary PBMCs from normal donors (ID 4328, 4379) and AML patients (ID 11SH, 09P6); conditions: KG1, 200 nM, 8 or 12 hours
Procedure: as §1, §2
In two sensitive AML cell lines, KG-1 and HL-60, both a concentration-dependent decrease in GSPT1 protein and an increase in RNA expression of ATF3, CHOP, and SRSF3 and SRSF6 NMD transcripts at the 8-hour time point were compared to caspase 3/7 activation (apoptosis) at the 24-hour (FIG. 30A [KG-1]; FIG. 30C [HL-60]) and 48-hour (FIG. 30B [KG-1]; FIG. 30D [HL-60]) time points.
The reduction in the level of GSPT1 protein was concentration-dependent over the range of 3 to 1000 nM in eight of the nine AML cell lines and over the range of 300 to 1000 nM in one relatively insensitive AML cell line. The time course of the reduction in GSPT1 by Compound D also was studied for up to 48 hours. The progressive degradation of GSPT1 over the course of 1 to 20 hours was evident in the presence of all concentrations of Compound D studied from 3 to 300 nM in HNT-34, HL-60, and ML-2 cells, with little GSPT1 remaining by 20 hours at 100 or 300 nM Compound D in HNT-34 or HL-60 cells (FIG. 34 and FIG. 35C). Time-dependent reduction in GSPT1 was also observed in KG-1 and OCI-AML2 cells at 3 to 1000 nM Compound D, with little GSPT1 remaining in KG-1 cells at 100 to 300 nM at 24 hours or in OCI-AML2 cells at 300 and 1000 nM at 24 hours (FIG. 35D). Loss of GSPT1 occurred more slowly in Kasumi-1, AML-193, and F36-P cells.
Compound D-mediated GSPT1 reduction at 8 hours was compared to induction of caspase 3/7 activation (apoptosis) at 12, 24, and 48 hour time points in these nine AML cell lines. […] A positive association (r^2=0.50; R=0.71; p value=4.86E-002) was observed between the level of GSPT1 reduction and apoptosis induction in the AML cell panel (FIG. 36), with >90% GSPT1 reduction correlating with induction of apoptosis.

GSPT1 [4] = target: T1, GSPT1; test: GSPT1 protein reduction, western analysis, normal PBMCs; conditions: PBMC, 1 nM to 1000 nM, 20 hours
Procedure: PBMC were treated with 1 nM, 10 nM, 100 nM, or 1000 nM of Compound D or Compound E for 20 hours.

U-937 cells = test: Anti-proliferation CTG assay, U-937; type: cell-based, human; conditions: 48 hours
Procedure: as §3, §4

p-eIF2α = p-eIF2α immunoblot, OCI-AML2; type: cell-based, human; conditions: 300 μg/ml G418 or 200 nM Compound D
Procedure: (§5) It is known that amino acid starvation causes GCN2 activation, which phosphorylates eIF2α. Because GSPT1 mediates normal translation termination, it is hypothesized that depletion of GSPT1 by Compound D may cause readthrough of stop codons. Whether the translational readthrough induced by Compound D contributes to the increased levels of p-eIF2α was investigated. OCI-AML2 cells stably expressing the Fluc/Nluc-G36A readthrough reporter were treated with 300 μg/ml G418 or 200 nM Compound D for 2, 4, 6, 8, 10, 12, or 16 hours. The levels of p-eIF2α were measured by immunoblot analysis. AML2 readthrough assay was conducted to measure the readthrough reporter.

[5] = tested on: translational readthrough; test: AML2 readthrough assay (Fluc/Nluc-G36A reporter), OCI-AML2; type: cell-based, human; conditions: 300 μg/ml G418 or 200 nM Compound D
Procedure: as §5

T1 sequence (P15170 1-637 isoform P15170-3): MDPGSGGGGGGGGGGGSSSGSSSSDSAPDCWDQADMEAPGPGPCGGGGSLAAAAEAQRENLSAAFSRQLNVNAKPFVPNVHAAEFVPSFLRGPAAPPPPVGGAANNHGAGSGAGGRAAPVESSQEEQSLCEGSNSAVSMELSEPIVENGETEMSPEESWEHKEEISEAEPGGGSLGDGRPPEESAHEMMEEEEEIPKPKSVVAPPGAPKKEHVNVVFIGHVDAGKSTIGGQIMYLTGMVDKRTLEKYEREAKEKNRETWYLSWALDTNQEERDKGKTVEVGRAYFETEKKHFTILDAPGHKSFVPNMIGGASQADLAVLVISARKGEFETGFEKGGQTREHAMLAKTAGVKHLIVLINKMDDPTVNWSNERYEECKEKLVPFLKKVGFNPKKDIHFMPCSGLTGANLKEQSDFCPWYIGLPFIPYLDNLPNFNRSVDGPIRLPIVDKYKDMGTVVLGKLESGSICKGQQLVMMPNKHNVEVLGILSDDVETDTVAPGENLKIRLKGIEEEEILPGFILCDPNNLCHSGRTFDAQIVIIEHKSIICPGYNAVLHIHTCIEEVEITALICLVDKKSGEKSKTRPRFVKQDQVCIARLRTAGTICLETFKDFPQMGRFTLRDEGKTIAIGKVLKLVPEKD
T1 sequence (Q96SW2 whole entry): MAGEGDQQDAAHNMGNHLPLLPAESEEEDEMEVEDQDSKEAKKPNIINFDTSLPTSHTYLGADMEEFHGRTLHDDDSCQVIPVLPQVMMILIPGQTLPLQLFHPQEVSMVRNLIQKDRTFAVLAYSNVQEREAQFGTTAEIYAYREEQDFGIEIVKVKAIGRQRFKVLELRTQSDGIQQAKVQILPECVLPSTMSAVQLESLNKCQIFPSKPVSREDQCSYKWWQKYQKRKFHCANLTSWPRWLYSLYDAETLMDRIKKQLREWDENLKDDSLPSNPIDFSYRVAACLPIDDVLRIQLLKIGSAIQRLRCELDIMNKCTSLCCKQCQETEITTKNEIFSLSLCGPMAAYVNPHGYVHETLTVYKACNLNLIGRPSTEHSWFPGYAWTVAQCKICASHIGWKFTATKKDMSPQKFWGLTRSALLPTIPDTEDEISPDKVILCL
T1 sequence (Q16531 whole entry partner): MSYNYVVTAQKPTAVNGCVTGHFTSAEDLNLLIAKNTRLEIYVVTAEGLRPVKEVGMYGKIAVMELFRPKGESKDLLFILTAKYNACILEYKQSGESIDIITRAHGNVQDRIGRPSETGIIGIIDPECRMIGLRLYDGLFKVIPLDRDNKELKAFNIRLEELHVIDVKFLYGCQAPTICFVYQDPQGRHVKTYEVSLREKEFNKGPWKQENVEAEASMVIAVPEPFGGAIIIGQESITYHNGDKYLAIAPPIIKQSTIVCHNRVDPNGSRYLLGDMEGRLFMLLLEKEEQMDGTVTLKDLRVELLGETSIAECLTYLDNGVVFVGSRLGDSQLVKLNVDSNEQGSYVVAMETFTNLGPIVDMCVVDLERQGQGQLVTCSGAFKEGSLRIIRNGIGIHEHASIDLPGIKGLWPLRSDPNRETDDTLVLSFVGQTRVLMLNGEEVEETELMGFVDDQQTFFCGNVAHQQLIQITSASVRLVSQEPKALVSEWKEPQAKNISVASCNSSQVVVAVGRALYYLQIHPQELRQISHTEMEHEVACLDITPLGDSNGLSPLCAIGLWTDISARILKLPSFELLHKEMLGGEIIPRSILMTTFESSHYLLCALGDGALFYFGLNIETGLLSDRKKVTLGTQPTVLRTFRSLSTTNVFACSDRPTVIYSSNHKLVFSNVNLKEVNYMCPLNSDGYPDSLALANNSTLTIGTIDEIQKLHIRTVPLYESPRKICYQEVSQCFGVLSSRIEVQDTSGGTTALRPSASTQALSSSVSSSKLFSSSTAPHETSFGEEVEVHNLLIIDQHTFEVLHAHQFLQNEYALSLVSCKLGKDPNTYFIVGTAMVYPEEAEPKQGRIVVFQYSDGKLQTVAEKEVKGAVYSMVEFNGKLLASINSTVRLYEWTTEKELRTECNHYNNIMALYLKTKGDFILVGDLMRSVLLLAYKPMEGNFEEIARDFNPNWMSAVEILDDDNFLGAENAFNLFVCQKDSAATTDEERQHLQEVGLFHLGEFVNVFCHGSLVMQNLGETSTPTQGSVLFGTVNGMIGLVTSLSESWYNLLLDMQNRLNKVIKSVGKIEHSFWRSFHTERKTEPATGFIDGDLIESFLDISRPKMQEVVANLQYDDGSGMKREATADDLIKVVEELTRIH
Sequence of IKZF1 (Q13422 whole entry): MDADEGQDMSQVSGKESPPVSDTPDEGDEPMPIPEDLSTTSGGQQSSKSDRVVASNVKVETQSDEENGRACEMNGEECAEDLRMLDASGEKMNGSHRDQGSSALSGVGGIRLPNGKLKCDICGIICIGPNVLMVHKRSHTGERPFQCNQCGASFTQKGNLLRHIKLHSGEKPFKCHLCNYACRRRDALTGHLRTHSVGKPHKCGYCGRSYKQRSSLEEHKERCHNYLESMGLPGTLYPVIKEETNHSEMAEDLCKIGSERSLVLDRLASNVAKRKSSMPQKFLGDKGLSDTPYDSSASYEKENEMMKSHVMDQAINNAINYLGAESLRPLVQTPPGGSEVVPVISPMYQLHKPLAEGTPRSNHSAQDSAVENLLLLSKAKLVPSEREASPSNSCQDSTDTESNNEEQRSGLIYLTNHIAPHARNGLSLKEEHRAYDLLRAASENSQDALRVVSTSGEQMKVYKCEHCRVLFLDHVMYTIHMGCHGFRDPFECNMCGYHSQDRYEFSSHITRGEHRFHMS
Sequence of IKZF1 (Q96SW2 whole entry): as the sequence (Q96SW2 whole entry) above
Sequence of IKZF1 (Q16531 whole entry partner): as the sequence (Q16531 whole entry partner) above

In the case of `Nc1cccc2c1C(=O)N(C1CCC(=O)NC1=O)C2=O` (stereo not shown) [pomalidomide, reference compound], the “effect on GSPT1 level” value (GSPT1 [1]) is reported as “no significant effect” and the “effect on IKZF1 level” value (IKZF1) is reported as “induced degradation of IKZF1 at much lower concentrations than Compound D”.
`O=C1CCC(N2Cc3cc(CNC(=O)C(F)(F)c4ccc(F)cc4)ccc3C2=O)C(=O)N1` (stereo not shown) [Compound E, N-((2-(2,6-dioxopiperidin-3-yl)-1-oxoisoindolin-5-yl)methyl)-2,2-difluoro-2-(4-fluorophenyl)acetamide] was tested, and the “level of ATF3, DDIT3, cleaved Caspase-3, cleaved Caspase-8, and cleaved PARP” value [2] was “increased the level”, the “cell proliferation (CellTiter-Glo)” value (OCI-AML3 cells) was “exhibited anti-proliferative effect, particularly at high concentration” and the “cell proliferation (CellTiter-Glo)” value (KG-1 cells) was “exhibited anti-proliferative effect, particularly at high concentration”. The anti-proliferative effect (MOLM-13 cells; MOLM13 CRBN -/- cells) was “completely abolished”, the “cell proliferation (CellTiter-Glo)” value (MOLM-13 cells; MOLM13 parental cells, 0.001 μM to 10 μM) was “inhibited cell proliferation” and the “degradation of GSPT1” value (GSPT1 [3]) was “induced degradation”. For the same molecule, the “expression of GSPT1” value (GSPT1 [4]) was “decreased the expression of GSPT1”, the anti-proliferative effect (U-937 cells; U937 CRBN -/- cells) was “completely abolished” and the “cell proliferation (CellTiter-Glo)” value (U-937 cells; U937 parental cells, 0.001 μM to 10 μM) was “inhibited cell proliferation”.
For `CN[C@@H]1[C@@H](O)[C@@H](O[C@@H]2[C@@H](O)[C@H](O[C@H]3O[C@H]([C@@H](C)O)[C@@H](O)[C@H](O)[C@H]3N)[C@@H](N)C[C@H]2N)OC[C@]1(C)O` [Compound G418, G418, reference compound], the “levels of p-eIF2α” value (p-eIF2α) was “little effect” and the translational readthrough [5] was “induced translational readthrough at a comparable level”.
